Assay results as given in ChEMBL document CHEMBL1909294, “Translating clinical findings into knowledge in drug safety evaluation--drug induced liver injury prediction system (DILIps)” (PLoS Comput Biol, 2011).

Legend:
Hepatotoxicity [1] = system: Hepatotoxicity;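 on HepSE Combined Scores: combined hepatic side effect score as listed in the training data of the Drug Induced Liver Injury Prediction System (DILIps)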;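 on HepSE elevated liver function tests: hepatic side effect score for raised liver function tests, as recorded in the DILIps training set used for predicting drug-induced liver injury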;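 on HepSE hepatitis: Hepatitis-related hepatic side effect score taken from the training data of DILIps, a prediction system for drug-induced liver injury; call rule not given here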;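 on HepSE hepatomegaly: hepatic side effect score for hepatomegaly, taken from the training set of the DILIps drug-induced liver injury prediction system; call rule not given here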;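 on HepSE jaundice: Jaundice-related hepatic side-effect score drawn from the training data of the DILIps (drug-induced liver injury prediction system); call rule not given here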; on HepSE liver disease: call rule not given here;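 on HepSE liver fatty: hepatic side effect score for fatty liver, taken from the DILIps training set for predicting drug-induced liver injury; call rule not given here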
Hepatotoxicity [2] = system: Hepatotoxicity; remark: listed apart in the source;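 on HepSE Combined Scores: combined hepatic side effect score as listed in the training data of the Drug Induced Liver Injury Prediction System (DILIps)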;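 on HepSE elevated liver function tests: hepatic side effect score for raised liver function tests, as recorded in the DILIps training set used for predicting drug-induced liver injury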;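 on HepSE hepatitis: Hepatitis-related hepatic side effect score taken from the training data of DILIps, a prediction system for drug-induced liver injury; call rule not given here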;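 on HepSE hepatomegaly: hepatic side effect score for hepatomegaly, taken from the training set of the DILIps drug-induced liver injury prediction system; call rule not given here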;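 on HepSE jaundice: Jaundice-related hepatic side-effect score drawn from the training data of the DILIps (drug-induced liver injury prediction system); call rule not given here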; on HepSE liver disease: call rule not given here;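 on HepSE liver fatty: hepatic side effect score for fatty liver, taken from the DILIps training set for predicting drug-induced liver injury; call rule not given here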
Hepatotoxicity [3] = system: Hepatotoxicity; remark: listed apart in the source;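 on HepSE Combined Scores: combined hepatic side effect score as listed in the training data of the Drug Induced Liver Injury Prediction System (DILIps)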;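 on HepSE elevated liver function tests: hepatic side effect score for raised liver function tests, as recorded in the DILIps training set used for predicting drug-induced liver injury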;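 on HepSE hepatitis: Hepatitis-related hepatic side effect score taken from the training data of DILIps, a prediction system for drug-induced liver injury; call rule not given here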;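 on HepSE jaundice: Jaundice-related hepatic side-effect score drawn from the training data of the DILIps (drug-induced liver injury prediction system); call rule not given here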; on HepSE liver disease: call rule not given here;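 on HepSE liver fatty: hepatic side effect score for fatty liver, taken from the DILIps training set for predicting drug-induced liver injury; call rule not given here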
Hepatotoxicity [4] = system: Hepatotoxicity; remark: listed apart in the source;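 on HepSE Combined Scores: combined hepatic side effect score as listed in the training data of the Drug Induced Liver Injury Prediction System (DILIps)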;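 on HepSE elevated liver function tests: hepatic side effect score for raised liver function tests, as recorded in the DILIps training set used for predicting drug-induced liver injury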;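 on HepSE hepatitis: Hepatitis-related hepatic side effect score taken from the training data of DILIps, a prediction system for drug-induced liver injury; call rule not given here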;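 on HepSE jaundice: Jaundice-related hepatic side-effect score drawn from the training data of the DILIps (drug-induced liver injury prediction system); call rule not given here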; on HepSE liver disease: call rule not given here;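 on HepSE liver fatty: hepatic side effect score for fatty liver, taken from the DILIps training set for predicting drug-induced liver injury; call rule not given here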
Hepatotoxicity [5] = system: Hepatotoxicity; remark: listed apart in the source; on HepSE liver disease: call rule not given here
Hepatotoxicity [6] = system: Hepatotoxicity; remark: listed apart in the source; on HepSE liver disease: call rule not given here
Hepatotoxicity [7] = system: Hepatotoxicity; remark: listed apart in the source
Hepatotoxicity [8] = system: Hepatotoxicity; remark: listed apart in the source
Hepatotoxicity [9] = system: Hepatotoxicity; remark: listed apart in the source
Hepatotoxicity [10] = system: Hepatotoxicity; remark: listed apart in the source
Hepatotoxicity [11] = system: Hepatotoxicity; remark: listed apart in the source
Hepatotoxicity [12] = system: Hepatotoxicity; remark: listed apart in the source
Hepatotoxicity [13] = system: Hepatotoxicity; remark: listed apart in the source
Hepatotoxicity [14] = system: Hepatotoxicity; remark: listed apart in the source

Row | SMILES | HepSE_Combined Scores (Hepatotoxicity [1]) | HepSE_hepatitis (Hepatotoxicity [2]) | HepSE_hepatic necrosis (Hepatotoxicity [3]) | HepSE_liver disease (Hepatotoxicity [4]) | HepSE_elevated liver function tests (Hepatotoxicity [5]) | HepSE_liver fatty (Hepatotoxicity [6]) | HepSE_jaundice (Hepatotoxicity [7]) | HepSE_hepatomegaly (Hepatotoxicity [8]) | HepSE_liver function tests abnormal (Hepatotoxicity [9]) | HepSE_bilirubinemia (Hepatotoxicity [10]) | HepSE_cholecystitis (Hepatotoxicity [11]) | HepSE_cirrhosis (Hepatotoxicity [12]) | HepSE_cholelithiasis (Hepatotoxicity [13]) | HepSE_hepatic failure (Hepatotoxicity [14]) | other results
1 | NCCCC(N)(C(=O)O)C(F)F (configuration not stated) [EFLORNITHINE] | 0 | 0 | 0 | 0 | 0 | 0 | 0 | 0 | 0 | 0 | 0 | 0 | 0 | 0 | 
2 | NC(=O)c1cnccn1 [PYRAZINAMIDE] | 0 | 0 | 0 | 0 | 0 | 0 | 0 | 0 | 0 | 0 | 0 | 0 | 0 | 0 | 
3 | COc1ccccc1OCC(O)COC(N)=O (configuration not stated) [METHOCARBAMOL] | 1 | 0 | 0 | 0 | 0 | 0 | 1 | 0 | 0 | 0 | 0 | 0 | 0 | 0 | 
4 | NCCC(O)(P(=O)(O)O)P(=O)(O)O [PAMIDRONIC ACID] | 1 | 0 | 0 | 0 | 0 | 0 | 0 | 0 | 1 | 0 | 0 | 0 | 0 | 0 | 
5 | CC(=O)NC[C@H]1CN(c2ccc(N3CCOCC3)c(F)c2)C(=O)O1 [LINEZOLID] | 2 | 0 | 0 | 0 | 0 | 0 | 1 | 0 | 1 | 0 | 0 | 0 | 0 | 0 | 
6 | COC1=CC(=O)C[C@@H](C)[C@]12Oc1c(Cl)c(OC)cc(OC)c1C2=O [GRISEOFULVIN] | 0 | 0 | 0 | 0 | 0 | 0 | 0 | 0 | 0 | 0 | 0 | 0 | 0 | 0 | 
7 | CCN(CC)CCNC(=O)c1cc(Cl)c(N)cc1OC [METOCLOPRAMIDE] | 1 | 0 | 0 | 0 | 0 | 0 | 1 | 0 | 0 | 0 | 0 | 0 | 0 | 0 | 
8 | O=[N+]([O-])OCC(CO[N+](=O)[O-])O[N+](=O)[O-] [NITROGLYCERIN] | 0 | 0 | 0 | 0 | 0 | 0 | 0 | 0 | 0 | 0 | 0 | 0 | 0 | 0 | 
9 | NC(=O)C(c1ccccc1)(c1ccccc1)[C@@H]1CCN(CCc2ccc3c(c2)CCO3)C1 [DARIFENACIN] | 0 | 0 | 0 | 0 | 0 | 0 | 0 | 0 | 0 | 0 | 0 | 0 | 0 | 0 | 
10 | Cc1nc(Nc2ncc(C(=O)Nc3c(C)cccc3Cl)s2)cc(N2CCN(CCO)CC2)n1.O [DASATINIB] | 3 | 1 | 0 | 0 | 0 | 0 | 0 | 0 | 1 | 0 | 1 | 0 | 0 | 0 | 
11 | COc1c(C)c2c(c(O)c1C/C=C(\C)CCC(=O)O)C(=O)OC2 [MYCOPHENOLIC ACID] | 5 | 1 | 0 | 1 | 0 | 0 | 1 | 0 | 1 | 1 | 0 | 0 | 0 | 0 | 
12 | CNC1(C)C2CCC(C2)C1(C)C (configuration not stated) [MECAMYLAMINE] | 0 | 0 | 0 | 0 | 0 | 0 | 0 | 0 | 0 | 0 | 0 | 0 | 0 | 0 | 
13 | C[N+]1(C)CCCC(OC(=O)C(O)(c2ccccc2)c2ccccc2)C1.[Br-] (configuration not stated) [MEPENZOLATE BROMIDE] | 0 | 0 | 0 | 0 | 0 | 0 | 0 | 0 | 0 | 0 | 0 | 0 | 0 | 0 | 
14 | CCCN[C@H]1CCc2nc(N)sc2C1 [PRAMIPEXOLE] |  |  |  |  |  |  |  |  |  |  |  |  |  |  | HepSE_Combined Scores (Hepatotoxicity [1]; Liver): 2; HepSE_hepatitis (Hepatotoxicity [2]; Liver): 0; HepSE_hepatic necrosis (Hepatotoxicity [3]; Liver): 0; HepSE_liver disease (Hepatotoxicity [4]; Liver): 0; HepSE_elevated liver function tests (Hepatotoxicity [5]; Liver): 0; HepSE_liver fatty (Hepatotoxicity [6]; Liver): 0; HepSE_jaundice (Hepatotoxicity [7]; Liver): 0; HepSE_hepatomegaly (Hepatotoxicity [8]; Liver): 0; HepSE_liver function tests abnormal (Hepatotoxicity [9]; Liver): 0; HepSE_bilirubinemia (Hepatotoxicity [10]; Liver): 0; HepSE_cholecystitis (Hepatotoxicity [11]; Liver): 1; HepSE_cirrhosis (Hepatotoxicity [12]; Liver): 0; HepSE_cholelithiasis (Hepatotoxicity [13]; Liver): 1; HepSE_hepatic failure (Hepatotoxicity [14]; Liver): 0
15 | OC[C@H]1O[C@@H](O[C@@H]2[C@@H](CO)O[C@](O)(CO)[C@H]2O)[C@H](O)[C@@H](O)[C@H]1O [LACTULOSE] | 0 | 0 | 0 | 0 | 0 | 0 | 0 | 0 | 0 | 0 | 0 | 0 | 0 | 0 | 
16 | COc1cc2nc(N3CCN(C(=O)C4COc5ccccc5O4)CC3)nc(N)c2cc1OC (configuration not stated) [DOXAZOSIN] | 4 | 1 | 0 | 0 | 0 | 0 | 1 | 0 | 1 | 0 | 0 | 0 | 1 | 0 | 
17 | CN1CCN(C2=Nc3ccccc3Oc3ccc(Cl)cc32)CC1 [LOXAPINE] | 2 | 1 | 0 | 0 | 0 | 0 | 1 | 0 | 0 | 0 | 0 | 0 | 0 | 0 | 
18 | O=C(O)P(=O)(O)O [FOSCARNET] | 0 | 0 | 0 | 0 | 0 | 0 | 0 | 0 | 0 | 0 | 0 | 0 | 0 | 0 | 
